These are literature values, as cited in patent publication US8258301B2, “Urotensin II receptor antagonists” (Boehringer Ingelheim International GmbH, priority 2007, dated 2012).

The conditions of the series: patients, clinical trial.

On to `Cc1cc(NC(=O)NCCN2CCC(O)(Cc3ccccc3)CC2)c2ccccc2n1` [Palosuran], for which the “modulate the 24-hour urinary albumin excretion rate” value was 24.3%.
